# Values of other authors as cited in patent US20040138299A1, “Solid pharmaceutical composition comprising 4-cyano-trifluoro-3(4-fluorophenyl-sulphonyl)-2hydroxy-methylpropiono-m toluidide and pvp” (priority 2001, published 2004).
# Settings: conventional tablet doses above 300 mg
compound,measurement,value
"CC(O)(CS(=O)(=O)c1ccc(F)cc1)C(=O)Nc1ccc(C#N)c(C(F)(F)F)c1 (stereo not drawn) [bicalutamide, 4′-cyano-α′,α′,α′-trifluoro-3-(4-fluorophenylsulphonyl)-2-hydroxy-2-methylpropiono-m-toluidide]",systemic exposure at high dose,no further significant increase in systemic exposure
